According to patent US20250346585A1 (Alexion Pharmaceuticals, Inc., priority 2022, published 2025):
Read-outs that look alike come from different tables or passages of the source.

Target: Human complement C1s enzyme (Homo sapiens (Human), UniProt P09871)
Test: Human C1s enzyme assay
Format: biochemical
Settings: read-out: IC50 (Stars)
Procedure, shortened: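 IC50 derived by nonlinear regression of rate versus concentration, with rate taken from A405 kinetics (30 s intervals, 30 min) after adding 100 μM each Z-L-Lys-SBzl and DTNB. C1s from human serum, 1.16 nM, exposed to compound for 5 min at RT beforehand; buffer 50 mM Tris, 1 M NaCl, pH 7.5.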

[1] = Human C1s enzyme assay of Example 3
[2] = Human complement C1s enzyme 1.16 nM, substrate Z-L-Lys-SBzl 100 μM, assay of Example 3

Chain of Human complement C1s enzyme (P09871 438-688 limits assumed): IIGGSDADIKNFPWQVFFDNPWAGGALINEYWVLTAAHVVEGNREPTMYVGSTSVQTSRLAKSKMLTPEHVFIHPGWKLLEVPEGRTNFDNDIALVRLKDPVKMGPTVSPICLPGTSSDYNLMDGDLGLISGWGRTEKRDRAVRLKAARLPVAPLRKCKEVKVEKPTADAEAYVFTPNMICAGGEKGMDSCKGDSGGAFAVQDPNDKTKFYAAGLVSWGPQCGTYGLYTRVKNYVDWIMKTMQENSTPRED
Chain of Human complement C1s enzyme (P09871 16-437 partner limits assumed): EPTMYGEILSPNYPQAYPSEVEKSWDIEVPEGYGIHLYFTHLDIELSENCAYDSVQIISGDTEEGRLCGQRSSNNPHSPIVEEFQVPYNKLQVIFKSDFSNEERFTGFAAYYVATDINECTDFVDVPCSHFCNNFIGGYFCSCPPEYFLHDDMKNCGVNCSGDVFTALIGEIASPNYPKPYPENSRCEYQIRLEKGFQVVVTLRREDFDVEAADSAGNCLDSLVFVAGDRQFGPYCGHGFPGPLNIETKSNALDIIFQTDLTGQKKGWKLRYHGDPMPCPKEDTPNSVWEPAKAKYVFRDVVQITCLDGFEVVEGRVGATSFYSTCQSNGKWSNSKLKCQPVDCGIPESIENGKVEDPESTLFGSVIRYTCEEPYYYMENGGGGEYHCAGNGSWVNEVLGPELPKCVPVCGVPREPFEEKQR

Row | SMILES | IC50 [1] [nM] | IC50 [2] [nM] | further results
1 | C[C@@H](NC(=O)[C@@H]1C[C@@H](OC(F)F)CN1C(=O)CNC(=O)c1ccc2c(c1)oc1ccccc12)c1cc(C(=N)N)cs1 [Compound 361, (2S,4R)—N—((R)-1-(4-carbamimidoylthiophen-2-yl)ethyl)-1-((dibenzo[b,d]furan-3-carbonyl)glycyl)-4-(difluoromethoxy)pyrrolidine-2-carboxamide] | – | < 100 | –
2 | N=C(N)c1csc(CNC(=O)[C@@H]2CC3(CN2C(=O)CN2CCc4cc(-c5ccccc5)ccc4C2=O)OCCO3)c1 [Compound 256, (S)—N-((4-carbamimidoylthiophen-2-yl)methyl)-7-(2-(1-oxo-6-phenyl-3,4-dihydroisoquinolin-2(1H)-yl)acetyl)-1,4-dioxa-7-azaspiro[4.4]nonane-8-carboxamide] | – | < 100 | –
3 | C[C@@H](NC(=O)[C@@H]1C[C@@H](S(C)(=O)=O)CN1C(=O)CNC(=O)c1ccc2c(c1)-c1ccccc1S2(=O)=O)c1cc(C(=N)N)cs1 [Compound 342, (2S,4R)—N—((R)-1-(4-carbamimidoylthiophen-2-yl)ethyl)-1-((5,5-dioxidodibenzo[b,d]thiophene-2-carbonyl)glycyl)-4-(methylsulfonyl) pyrrolidine-2-carboxamide] | – | < 100 | –
4 | C[C@H](O)[C@H](O)[C@@H](O)[C@@H](O)CNCC(=O)NCCOC[C@@]12C[C@@H]1N(C(=O)CNC(=O)c1ccc(Oc3ccc(F)cc3)cc1)[C@H](C(=O)N[C@H](C)c1cc(C(=N)N)cs1)C2 [Compound 84, (1S,3S,5R)—N—((R)-1-(4-carbamimidoylthiophen-2-yl)ethyl)-2-((4-(4-fluorophenoxy)benzoyl)glycyl)-5-((2-(2-(((2S,3S,4S,5S)-2,3,4,5-tetrahydroxyhexyl)amino)acetamido)ethoxy)methyl)-2-azabicyclo[3.1.0]hexane-3-carboxamide] | < 100 | – | –
5 | CC(NC(=O)[C@@H]1CC2(CN1C(=O)CNC(=O)c1ccc(-c3ccccc3)cn1)OCCO2)c1cc(C(=N)N)cs1 (stereo in doubt) [Compound 167, (S)—N—((S)-1-(4-carbamimidoylthiophen-2-yl)ethyl)-7-((5-phenylpicolinoyl)glycyl)-1,4-dioxa-7-azaspiro[4.4]nonane-8-carboxamide] | < 100 | – | –
6 | Cc1cccc2c1C(F)(F)c1ccc(C(=O)NCC(=O)N3CC4(C[C@H]3C(=O)N[C@H](C)c3cc(C(=N)N)cs3)OCCO4)cc1-2 [Compound 182, (S)—N—((R)-1-(4-carbamimidoylthiophen-2-yl)ethyl)-7-((9,9-difluoro-8-methyl-9H-fluorene-3-carbonyl)glycyl)-1,4-dioxa-7-azaspiro[4.4]nonane-8-carboxamide] | < 100 | – | –
7 | CC(=O)Nc1csc(CNC(=O)[C@@H]2CC3(CN2C(=O)CNC(=O)c2ccc(Oc4ccc(F)cc4)cc2)OCCO3)c1 [Compound 288, (S)-N-((4-acetamidothiophen-2-yl)methyl)-7-((4-(4-fluorophenoxy)benzoyl)glycyl)-1,4-dioxa-7-azaspiro[4.4]nonane-8-carboxamide] | – | > 1000 | –
8 | C[C@@H](NC(=O)[C@@H]1C[C@@H](S(C)(=O)=O)CN1C(=O)CNC(=O)c1ccc(Oc2ccc(F)cc2)cc1)c1cc(C(=N)N)cs1 [Compound 54, (2S,4R)—N—((R)-1-(4-carbamimidoylthiophen-2-yl)ethyl)-1-((4-(4-fluorophenoxy)benzoyl)glycyl)-4-(methylsulfonyl)pyrrolidine-2-carboxamide] | < 100 | – | –
9 | N=C(N)c1csc(CNC(=O)[C@@H]2CC3(CN2C(=O)CNC(=O)c2ccc(-c4c(F)cccc4F)cc2)OCCO3)c1 [Compound 196, (S)—N-((4-carbamimidoylthiophen-2-yl)methyl)-7-((2′,6′-difluoro-[1,1′-biphenyl]-4-carbonyl)glycyl)-1,4-dioxa-7-azaspiro[4.4]nonane-8-carboxamide] | < 100 | – | –
10 | C[C@@H](NC(=O)[C@@H]1CC2(CN1C(=O)CNC(=O)c1cc(F)c(-c3ccc(F)cc3)cn1)OCCO2)c1cc(C(=N)N)cs1 [Compound 181, (S)—N—((R)-1-(4-carbamimidoylthiophen-2-yl)ethyl)-7-((4-fluoro-5-(4-fluorophenyl)picolinoyl)glycyl)-1,4-dioxa-7-azaspiro[4.4]nonane-8-carboxamide] | < 100 | – | –
11 | C[C@@H](NC(=O)[C@@H]1CC2(CN1C(=O)CN1Cc3ccc(-c4ccccc4)cc3C1=O)OCCO2)c1cc(C(=N)N)cs1 [Compound 386, (S)—N—((R)-1-(4-carbamimidoylthiophen-2-yl)ethyl)-7-(2-(1-oxo-6-phenylisoindolin-2-yl)acetyl)-1,4-dioxa-7-azaspiro[4.4]nonane-8-carboxamide] | – | < 100 | –
12 | N=C(N)c1csc(CNC(=O)[C@@H]2CC3(CN2C(=O)CNC(=O)c2ccc(-c4ccc(F)c(C(=O)O)c4)cc2)OCCO3)c1 [Compound 212, (S)-4′-((2-(8-(((4-carbamimidoylthiophen-2-yl)methyl)carbamoyl)-1,4-dioxa-7-azaspiro[4.4]nonan-7-yl)-2-oxoethyl)carbamoyl)-4-fluoro-[1,1′-biphenyl]-3-carboxylic acid] | – | < 100 | –
13 | CC1c2ccccc2-c2cc(C(=O)NCC(=O)N3C[C@@](F)(CF)C[C@H]3C(=O)N[C@H](C)c3cc(C(=N)N)cs3)ccc21 (stereo partly drawn) [Compound 417, (2S,4R)—N—((R)-1-(4-carbamimidoylthiophen-2-yl)ethyl)-4-fluoro-4-(fluoromethyl)-1-((9-methyl-9H-fluorene-3-carbonyl)glycyl)pyrrolidine-2-carboxamide] | – | – | IC50 (Human complement C1s enzyme 1.16 nM, substrate Z-L-Lys-SBzl, assay of Example 3): < 100 nM
14 | C[C@@H](NC(=O)[C@@H]1CC2(CN1C(=O)CNC(=O)c1ccc3c(c1)-c1ccccc1C3(F)F)OCCO2)c1cc(-c2ncco2)cs1 [Compound 113, (S)-7-((9,9-difluoro-9H-fluorene-3-carbonyl)glycyl)-N—((R)-1-(4-(oxazol-2-yl)thiophen-2-yl)ethyl)-1,4-dioxa-7-azaspiro[4.4]nonane-8-carboxamide] | > 1000 | – | –

Continued, in another order:

Row | IC50 [1] [nM] | IC50 [2] [nM] | SMILES | further results
15 | < 100 | – | COC[C@H]1C[C@@H](C(=O)N[C@H](C)c2cc(C(=N)N)cs2)N(C(=O)CNC(=O)c2ccc3c(c2)-c2ccccc2C3(F)F)C1 (relative stereo) [Compound 117, (2S,4S*)—N—((R)-1-(4-carbamimidoylthiophen-2-yl)ethyl)-1-((9,9-difluoro-9H-fluorene-3-carbonyl)glycyl)-4-(methoxymethyl)pyrrolidine-2-carboxamide] | –
16 | < 100 | – | COC[C@@H]1C[C@@H](C(=O)N[C@H](C)c2cc(C(=N)N)cs2)N(C(=O)CNC(=O)c2ccc3c(c2)-c2ccccc2C3(F)F)C1 (relative stereo) [Compound 118, (2S,4R*)—N—((R)-1-(4-carbamimidoylthiophen-2-yl)ethyl)-1-((9,9-difluoro-9H-fluorene-3-carbonyl)glycyl)-4-(methoxymethyl)pyrrolidine-2-carboxamide] | –
17 | < 100 | – | C[C@@H](NC(=O)[C@@H]1C[C@](F)(CF)CN1C(=O)CNC(=O)c1ccc2c(c1)-c1ccccc1C2(C)C)c1cc(C(=N)N)cs1 [Compound 153, (2S,4R)—N—((R)-1-(4-carbamimidoylthiophen-2-yl)ethyl)-1-((9,9-dimethyl-9H-fluorene-3-carbonyl)glycyl)-4-fluoro-4-(fluoromethyl)pyrrolidine-2-carboxamide] | –
18 | < 100 | – | C[C@@H](NC(=O)[C@@H]1C[C@]2(CO)C[C@@H]2N1C(=O)CNC(=O)c1ccc2c(c1)-c1ccccc1C2(F)F)c1cc(C(=N)N)cs1 [Compound 53, (1S,3S,5R)—N—((R)-1-(4-carbamimidoylthiophen-2-yl)ethyl)-2-((9,9-difluoro-9H-fluorene-3-carbonyl)glycyl)-5-(hydroxymethyl)-2-azabicyclo [3.1.0]hexane-3-carboxamide] | –
19 | < 100 | – | COC(=O)/N=C(/N)c1csc([C@@H](C)NC(=O)[C@@H]2CC3(CN2C(=O)CNC(=O)c2ccc4c(c2)-c2ccccc2C4(F)F)OCCO3)c1 [Compound 148, methyl ((E)-amino(5-((R)-1-((S)-7-((9,9-difluoro-9H-fluorene-3-carbonyl)glycyl)-1,4-dioxa-7-azaspiro[4.4]nonane-8-carboxamido)ethyl)thiophen-3-yl)methylene)carbamate] | –
20 | < 100 | – | COC[C@@]1(F)C[C@@H](C(=O)N[C@H](C)c2cc(C(=N)N)cs2)N(C(=O)CNC(=O)c2ccc3c(c2)-c2ccccc2C3(C)C)C1 [Compound 139, (2S,4R)—N—((R)-1-(4-carbamimidoylthiophen-2-yl)ethyl)-1-((9,9-dimethyl-9H-fluorene-3-carbonyl)glycyl)-4-fluoro-4-(methoxymethyl) pyrrolidine-2-carboxamide] | –
21 | – | > 1000 | C[C@@H](NC(=O)[C@@H]1CC2(CN1C(=O)CNC(=O)c1ccc3c(c1)-c1ccccc1C3(F)F)OCCO2)c1cc(C(N)=O)cs1 [Compound 200, (S)—N—((R)-1-(4-carbamoylthiophen-2-yl)ethyl)-7-((9,9-difluoro-9H-fluorene-3-carbonyl)glycyl)-1,4-dioxa-7-azaspiro[4.4]nonane-8-carboxamide] | –
22 | < 100 | – | C[C@@H](NC(=O)[C@@H]1C[C@H](c2nccs2)CN1C(=O)CNC(=O)c1ccc2c(c1)-c1ccccc1C2(F)F)c1cc(C(=N)N)cs1 [Compound 172, (2S,4S)—N—((R)-1-(4-carbamimidoylthiophen-2-yl)ethyl)-1-((9,9-difluoro-9H-fluorene-3-carbonyl)glycyl)-4-(thiazol-2-yl)pyrrolidine-2-carboxamide] | –
23 | – | < 100 | C[C@@H](NC(=O)[C@@H]1C[C@@H]([S@@](C)(=N)=O)CN1C(=O)CNC(=O)c1ccc2c(c1)-c1ccccc1C2(F)F)c1cc(C(=N)N)cs1 [Compound 252, (2S,4R)—N—((R)-1-(4-carbamimidoylthiophen-2-yl)ethyl)-1-((9,9-difluoro-9H-fluorene-3-carbonyl)glycyl)-4-((S)—S-methylsulfonimidoyl)pyrrolidine-2-carboxamide] | –
